Measured values: patent publication US8518966B2, “Amidoalkyl-8-azabicyclo[3.2.1]octane compounds as mu opioid receptor antagonists” (Theravance, Inc., priority 2007, dated 2013)

Columns and labels:
human mu opioid receptor [1] = target: T1, human mu opioid receptor (Homo sapiens, UniProt P35372); test: biochemical; assay type: binding
T1 construct: host or cells: CHO-K1

human mu opioid receptor [2] = target: T1, human mu opioid receptor; test: biochemical; details: read-out: intrinsic activity (IA), bound GTP-Eu relative to DAMGO (IA=100)
[3] = system: loperamide-induced delayed gastric emptying; test: Rat gastric emptying assay (reversal of loperamide-induced delayed gastric emptying); assay type: in vivo; details: administered orally, loperamide 1 mg/kg s.c.

T1 sequence (P35372 whole entry): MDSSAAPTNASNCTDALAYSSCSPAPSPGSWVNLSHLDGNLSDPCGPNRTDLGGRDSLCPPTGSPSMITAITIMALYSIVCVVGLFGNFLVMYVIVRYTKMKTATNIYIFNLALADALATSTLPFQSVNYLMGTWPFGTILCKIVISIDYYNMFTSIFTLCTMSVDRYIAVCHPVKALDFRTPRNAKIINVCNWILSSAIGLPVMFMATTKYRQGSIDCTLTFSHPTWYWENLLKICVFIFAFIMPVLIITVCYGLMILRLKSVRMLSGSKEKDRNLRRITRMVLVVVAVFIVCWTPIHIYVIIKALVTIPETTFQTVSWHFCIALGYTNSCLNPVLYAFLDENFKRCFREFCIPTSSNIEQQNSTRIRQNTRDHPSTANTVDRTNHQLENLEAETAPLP

Compound	pKi at the human mu opioid receptor (human mu opioid receptor [1])	Emax (human mu opioid receptor [2]) [%]	ID50, dose required for 50% reversal of the effects of loperamide [3] [mg/kg]	Ki (human mu opioid receptor [1]) [pM]
CCC(CC)CN(CCCN1[C@@H]2CC[C@H]1C[C@@H](c1cccc(C(N)=O)c1)C2)C(=O)CO [Example 1, 3-endo-(8-{3-[(2-ethylbutyl)-(2-hydroxyacetyl)-amino]propyl}-8-aza-bicyclo[3.2.1]oct-3-yl)-benzamide]	10.0	3	0.29	–
CCC(CC)CN(CCCN1[C@@H]2CC[C@H]1C[C@@H](c1cccc(C(N)=O)c1)C2)C(=O)CS(C)(=O)=O [Example 6, 3-endo-(8-{3-[(2-ethylbutyl)-(2-methanesulfonyl-acetyl)amino]propyl}-8-azabicyclo[3.2.1]oct-3-yl)-benzamide]	–	1	–	126
CCC(CC)CN(CCN1[C@@H]2CC[C@H]1C[C@@H](c1cccc(C(N)=O)c1)C2)C(=O)CS(C)(=O)=O [Example 7, 3-endo-(8-{2-[(2-ethylbutyl)-(2-methanesulfonyl-acetyl)amino]ethyl}-8-azabicyclo[3.2.1]oct-3-yl)-benzamide]	–	3	0.53	158
